Experimental data taken from article PMC10454375, “Cell-Impermeable Inhibitors Confirm That Intracellular Human Transglutaminase 2 Is Responsible for the Transglutaminase-Associated Cancer Phenotype” (International Journal of Molecular Sciences, 2023).
Peptide text beside a SMILES is read from it. * marks the point of attachment. X1 = C=CC(=O)NCCCCC(NC(=O)OCc1ccccc1)C(=O)N1CCN(C(=O)C(CCC(=O)*)NC(=O)c2cccc3ccccc23)CC1

Biological target: T1, TG6 (Homo sapiens, UniProt O95932)
T1 construct: purchased Zedira GmbH (Darmstadt, Germany)
T1 sequence (O95932 1-706): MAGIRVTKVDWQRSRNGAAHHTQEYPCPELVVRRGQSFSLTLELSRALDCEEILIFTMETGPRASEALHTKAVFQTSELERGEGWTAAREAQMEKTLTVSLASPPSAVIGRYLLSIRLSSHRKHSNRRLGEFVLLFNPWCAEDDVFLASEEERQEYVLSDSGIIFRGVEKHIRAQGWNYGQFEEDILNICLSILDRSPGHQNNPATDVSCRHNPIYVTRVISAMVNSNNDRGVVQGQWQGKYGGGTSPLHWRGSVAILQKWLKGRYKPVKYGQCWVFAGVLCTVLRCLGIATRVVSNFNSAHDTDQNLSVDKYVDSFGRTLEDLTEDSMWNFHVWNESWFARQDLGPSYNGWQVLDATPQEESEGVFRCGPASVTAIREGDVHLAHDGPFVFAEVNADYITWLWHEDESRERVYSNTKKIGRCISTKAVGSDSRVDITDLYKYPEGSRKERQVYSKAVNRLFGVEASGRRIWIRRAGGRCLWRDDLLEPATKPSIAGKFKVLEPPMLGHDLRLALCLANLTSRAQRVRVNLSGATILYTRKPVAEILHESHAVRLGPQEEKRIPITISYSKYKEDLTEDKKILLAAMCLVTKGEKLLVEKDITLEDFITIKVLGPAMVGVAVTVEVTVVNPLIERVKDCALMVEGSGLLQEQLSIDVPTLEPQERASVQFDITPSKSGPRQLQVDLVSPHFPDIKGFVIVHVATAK
Assay: TGase isozyme selectivity, TG6 with AL5 substrate
Format: biochemical
Conditions: [I]/α identical to that of the TG2 assay
Text: In the development of probes for TGases, isozyme selectivity is always a significant challenge. Since the catalytic machinery of the active sites of all TGases features a conserved Gly-Gln-Cys-Trp-Val sequence, selectivity for one isozyme over the others requires exploitation of slight differences in the protein substrate binding sites. In order to assess the isozyme selectivity of our cell-impermeable inhibitors, TG2 and four other therapeutically relevant TGases (Factor XIII, TG1, TG3, and TG6) were exposed to a concentration of inhibitor representing the same apparent competition with respect to the assay substrate (AL5 [38] or A101 [42, 43]). In other words, both the substrate and inhibitor concentrations were varied so that the [I]/α values were identical. […] This provides confidence that in further applications, these cell-impermeable inhibitors will selectively target TG2 over other transglutaminases.
[…] In brief, 125 µL assay buffer #1 (containing TRIS, CaCl2, and NaCl pH 7.5), 18 µL assay buffer #2 (containing TCEP and acceptor substrate H-Gly-OMe pH 7.5), and a respective concentration of inhibitor aqueous working stock balanced with various volumes of water were combined in a 96-well black plate with clear bottom/top. […] The isopeptidase activity of the respective TGase was then monitored at Ex/Em = 313/418 nm with a BioTek Synergy 4 plate reader at 25 °C. […]

Compound | inhibition of TG6
C=CC(=O)NCCCCC(NC(=O)OCc1ccccc1)C(=O)N1CCN(C(=O)C(CCC(=O)NCC(=O)NCC(=O)NCC(=O)NC(CC(=O)O)C(=O)NC(CC(=O)O)C(=O)NC(CC(=O)O)C(=O)O)NC(=O)c2cccc3ccccc23)CC1 (centres unmarked) [Compound 18] (X1-GGGDDD-OH; configuration not given here) | no detectable inhibition
C=CC(=O)NCCCCC(NC(=O)OCc1ccccc1)C(=O)N1CCN(C(=O)C(CCC(=O)NCCCCCC(=O)NC(CC(=O)O)C(=O)NC(CC(=O)O)C(=O)NC(CC(=O)O)C(=O)O)NC(=O)c2cccc3ccccc23)CC1 (centres unmarked) [Compound 17] | no detectable inhibition
